What was measured:
[1] = test system: Aβ25-35 mouse model of Alzheimer's disease; assay: Spontaneous alternation in the Y-maze, Aβ25-35 mouse model; type: in vivo; details: for highest sub-active dose, spontaneous alternation: Experiment 3, i.p.; for protection from injury produced by Aβ25-35 treatment, single agent: Experiment 4, i.p. day 1 to day 6, dose dependent
Description: (§1) The compound efficacy was evaluated 7 days after the peptide administration on the attenuation of the Aβ25-35-induced learning deficits (spatial working memory using the spontaneous alternation in the Y-maze test, and contextual long-term memory using the passive avoidance test).
(§2) The mice were tested 7 days post injection or at the indicated time points.
(§3) In Experiment 2, twelve mice per experimental group were administered Sc.Aβ or Aβ25-35-amyloid peptide on day 0 by i.c.v. injection. […] Animals were tested at day 7 and later.
(§4) The synergy/additivity/antagonism was evaluated by calculating the combination index. […] Animals were then tested at day 7 and later.
(§5) Animals were tested at day 7 and later.
(§6) For each of Experiments 1-4, on day 7, all animals were tested for the spontaneous alternation performance in the Y-maze test, an index of spatial working memory. On day 8 and 9, the contextual long-term memory of the animals was assessed using the step-through type passive avoidance procedure. On day 9, immediately after the retention session, animals were sacrificed by decapitation and the hippocampus and cortex dissected out. Lipid peroxidation was analyzed in the hippocampus, whereas neuroinflammation, apoptosis, amyloid burden and hyperphosphorylation of tau protein were analyzed in cortex.
The homogeneous oligomeric preparation of Aβ25-35 peptide was performed according to the AMYLGEN's own procedure. Each mouse was anesthetized with isoflurane 2.5% and injected i.c.v. with Aβ25-35 peptide (9 nmol/mouse) or Sc.Aβ peptide (9 nmol/mouse), in a final volume of 3 μl/mouse, according to the previously described method (Maurice T, et al. (1996). Brain Res. 706(2): 181-193, Maurice T, et al. (1998) Neuroscience 83(2): 413-428, Meunier J, et al. (2006) British J. Pharmacol. 149(8): 998-1012, Villard V, et al. (2009) Neuropsychopharmacology 34(6): 1552-1566, Villard V, et al. (2011) J. Pharmacol. Sci. 115(3): 279-292).
Animals: Male Swiss mice, 6 weeks old and weighing 30-35 g, from JANVIER (Saint Berthevin, France), were kept for housing and experiments took place within the animal facility building of the University of Montpellier 2 (CECEMA, Office of Veterinary Services agreement #B-34-172-23). Animals were housed in groups with access to food and water ad libitum, except during behavioral experiments. They were kept in a temperature and humidity controlled animal facility on a 12 h/12 h light/dark cycle (lights off at 07:00 pm). Mice were numbered by marking their tail using permanent markers. All animal procedures were conducted in strict adherence to the European Union directive of Sep. 22, 2010 (2010/63/UE). Diagnostic summary reports of JANVIER were annexed to the study report.
Spontaneous alternation performance: Immediate working memory performance was assessed by recording spontaneous alternation behavior during a single session in a Y-maze as described previously (Itoh J, et al. (1993) Eur J Pharmacol 236(3): 341-345; Hiramatsu M and Inoue K (1999) Br J Pharmacol 127(3): 655-660). The Y-maze is made of grey polyvinylchloride. Each arm of the Y-maze was 40 cm long, 3 cm wide, and 13 cm high at the bottom, 10 cm wide at the top, and converging at an equal angle. Each mouse was placed at the end of one arm and allowed to move freely through the maze during an 8 min session. The series of arm entries, including possible returns into the same arm, was checked visually. An alternation was defined as entries into all three arms on consecutive occasions. The number of maximum alternations is therefore the total number of arm entries minus two and the percentage of alternation was calculated as (actual alternations/maximum alternations)×100. Parameters included the percentage of alternation (memory index) and total number of arm entries (exploration index).

[2] = test system: Aβ25-35 mouse model of Alzheimer's disease; assay: Aβ25-35 mouse model, overall neuroprotection (summary statements); type: in vivo; details: versus usual doses; ibuprofen, atorvastatin after allometric scaling mouse to human
Description: as §1, §2, §3, §4, §5, §6

sigma-1R = details: cited from earlier work
[3] = test system: sigma-1 receptor / BiP complex; assay: Dissociation of BiP from sigma-1 receptor in CHO cells; type: cell-based; details: 10 μM NE100 with 10 μM igmesine
Description: CHO cells were grown in a 6-well plates and treated with the compounds in culture medium at 37° C. for 30 min at 1 μM and 10 μM final concentration. The reaction was stopped by medium removal and adding 3 mL PBS at 37° C. CHO cells were harvested and suspended in 50 mM HEPES (pH7.4) followed by cross-linking with 50 μg/ml of dithio (bis) succinimidyl propionate (Thermo Fisher Scientific, Waltham, Mass.) for 30 min at 4° C. The reaction was stopped by adding Tris-HCl (pH 8.8, final 50 mM). Fifteen minutes after incubation on ice, cells were lysed with RIPA buffer [50 mM Tris (pH7.4), 150 mM NaCl, 1% Triton X-100, 0.3% sodium deoxycholate, 0.1% SDS, protease inhibitor cocktail (Roche Complete)]. After centrifugation at 12,000 g, 1 min, the supernatant was incubated overnight at 4° C. with Sig-1R antibody (Abcam). The cell lysate was incubated with Sepharose protein-A (Invitrogen) for 90 min. After centrifugation at 12,000 g, 1 min, the supernatant was discarded and the pellet was washed in 0.5 mL RIPA buffer. After a second centrifugation at 12,000 g, 20 min, the supernatant was discarded and the pellet was washed in 0.5 mL 2× Sample buffer/bMCE buffer. Following a third centrifugation at 12,000 g, 1 min, the supernatant was analysed by ELISA assay, according to the manufacturer's protocol (USCNK #SEC343Mu).

Row | Compound | lowering of the partner drug's dose when associated with igmesine [2] [fold] | protection from injury produced by Aβ25-35 treatment, single agent [1] | further results
1 | COc1cc2c(cc1OC)C(=O)C(CC1CCN(Cc3ccccc3)CC1)C2 (stereo not shown) [donepezil, reference compound] | 4 | – | highest sub-active dose, spontaneous alternation [1]: 0.25 mg/kg
2 | C#CCN(C)[C@H](C)Cc1ccccc1 [selegiline] | – | able to protect | –
3 | CC(C)c1c(C(=O)Nc2ccccc2)c(-c2ccccc2)c(-c2ccc(F)cc2)n1CC[C@@H](O)C[C@@H](O)CC(=O)O [atorvastatin, reference compound] | 10 | able to protect | –
4 | CC12CC3CC(C)(C1)CC(N)(C3)C2 [memantine] | – | – | highest sub-active dose, spontaneous alternation [1]: 0.5 mg/kg
5 | CCC(C/C=C/c1ccccc1)(c1ccccc1)N(C)CC1CC1 (stereo not shown) [JO-1783, reference compound] | – | – | potency relative to igmesine at the binding site (sigma-1R): ten times less potent
6 | CCCN(CCC)CCc1ccc(OC)c(OCCc2ccccc2)c1 [NE100, reference compound] | – | – | antagonism of igmesine-induced BiP dissociation [3]: prevented
7 | CC(C)Cc1ccc(C(C)C(=O)O)cc1 (stereo not shown) [ibuprofen, reference compound] | 3 | able to protect | –

From patent publication US11129801B2 (SigmaThera SAS, priority 2016, dated 2021)
